In patent US9771369B2, “Compounds and methods for kinase modulation, and indications therefor” (Plexxikon Inc., priority 2014, dated 2017) one finds IC50 data, which are given here for twelve compounds.

The subject of experiment [1] is BaF3-FL KIT D816V or BaF3-FL KIT V560G/D816V cell line. Kind of experiment: Cell-based assays of c-Kit mutant kinase activity (cell proliferation, ATPlite). The note with it: at least one of the c-kit cell assays of Example 7. In a few lines:
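BaF3 cells dependent on transfected full-length human KIT D816V or V560G/D816V (pCI-Neo, CMV promoter) were seeded at 1×10^4 cells/well and exposed to 8-point 1:3 dilutions from 10 μM top (0.2% DMSO) for three days at 37° C. ATPlite luminescence gave cell number; IC50 from concentration-response.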

Experiment [2] addresses c-kit mutant D816V (Homo sapiens (Human), UniProt P10721, D816V/DEL694-753). Briefly: c-Kit mutant D816V biochemical assay (AlphaScreen kinase activity). In a few lines:
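Recombinant His-tagged c-Kit D816V kinase domain (residues 551-934, insert 694-753 deleted, E. coli-expressed) phosphorylating 30 nM biotin-(E4Y)10 with 10 μM ATP, HEPES pH 7.2, Mg/Mn, 5% DMSO; 30 min, room temperature. Phosphorylation detected by AlphaScreen (streptavidin donor/PY30 acceptor beads); IC50 from 8-point 1:3 series.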

c-kit mutant D816V, sequence (P10721 other isoform, or with tags, fused parts or gaps D816V/del 694-753): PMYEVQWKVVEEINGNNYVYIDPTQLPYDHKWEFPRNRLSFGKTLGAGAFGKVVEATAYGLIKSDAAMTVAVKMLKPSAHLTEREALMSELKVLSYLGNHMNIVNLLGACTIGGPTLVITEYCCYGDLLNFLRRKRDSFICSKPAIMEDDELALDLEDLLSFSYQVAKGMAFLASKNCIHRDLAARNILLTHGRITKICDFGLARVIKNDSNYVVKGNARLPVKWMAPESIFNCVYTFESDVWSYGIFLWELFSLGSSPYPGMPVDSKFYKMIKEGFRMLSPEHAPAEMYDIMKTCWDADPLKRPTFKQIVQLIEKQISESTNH

Consider `CCOc1ccc(-c2[nH]c(C3(C)CCN(c4ncnc5[nH]c(-c6ccc(C#N)cc6)cc45)CC3)nc2C)cc1` [P-3161, 4-[4-[4-[5-(4-ethoxyphenyl)-4-methyl-1H-imidazol-2-yl]-4-methyl-1-piperidyl]-7H-pyrrolo[2,3-d]pyrimidin-6-yl]benzonitrile], for which the values for the IC50 in experiment [1] and in experiment [2] were less than 10000 nM and 0.0001 to 1 µM, respectively.

`Cc1nc(C2CCN(c3ncnc4[nH]c(-c5ccc(C#N)cc5)cc34)CC2)[nH]c1-c1ccc(C(F)F)cc1` [P-3162, 4-[4-[4-[5-[4-(difluoromethyl)phenyl]-4-methyl-1H-imidazol-2-yl]-1-piperidyl]-7H-pyrrolo[2,3-d]pyrimidin-6-yl]benzonitrile]: the IC50 in experiment [1] was less than 10000 nM; in experiment [2], 0.0001 to 1 µM.

For `COc1ccc(-c2[nH]c(C3(C)CCN(c4ncnc5[nH]c(-c6ccc(C#N)cc6)cc45)CC3)nc2C)cc1F` [P-3163, 4-[4-[4-[5-(3-fluoro-4-methoxy-phenyl)-4-methyl-1H-imidazol-2-yl]-4-methyl-1-piperidyl]-7H-pyrrolo[2,3-d]pyrimidin-6-yl]benzonitrile], the IC50 in experiment [1] was less than 10000 nM; in experiment [2] it was 0.0001 to 1 µM.

`Cc1nc(C2(C)CCN(c3ncnc4[nH]c(-c5ccc(C#N)cc5)cc34)CC2)[nH]c1-c1ccc(C(F)F)cc1` [P-3164, 4-[4-[4-[5-[4-(difluoromethyl)phenyl]-4-methyl-1H-imidazol-2-yl]-4-methyl-1-piperidyl]-7H-pyrrolo[2,3-d]pyrimidin-6-yl]benzonitrile]: the figures for the IC50 in experiment [1] and in experiment [2] were less than 10000 nM and 0.0001 to 1 µM, respectively.

As for `Cc1cc2c(N3CCC(C)(c4nc(C)c(-c5ccc(C(F)(F)F)cc5)[nH]4)CC3)ncnc2[nH]1` [P-3165, 6-methyl-4-[4-methyl-4-[4-methyl-5-[4-(trifluoromethyl)phenyl]-1H-imidazol-2-yl]-1-piperidyl]-7H-pyrrolo[2,3-d]pyrimidine], the IC50 was less than 10000 nM in experiment [1] and 0.0001 to 1 µM in experiment [2].

For the compound `COc1cccc(-c2[nH]c(C3(C)CCN(c4ncnc5[nH]c(C)cc45)CC3)nc2C)c1` [P-3166, 4-[4-[5-(3-methoxyphenyl)-4-methyl-1H-imidazol-2-yl]-4-methyl-1-piperidyl]-6-methyl-7H-pyrrolo[2,3-d]pyrimidine], the values for the IC50 in experiment [1] and in experiment [2] were less than 10000 nM and 0.0001 to 1 µM, respectively.

As to `COc1cccc(-c2[nH]c(C3(C)CCN(c4ncnc5[nH]c(-c6ccc(C#N)cc6)cc45)CC3)nc2C)c1` [P-3167, 4-[4-[4-[5-(3-methoxyphenyl)-4-methyl-1H-imidazol-2-yl]-4-methyl-1-piperidyl]-7H-pyrrolo[2,3-d]pyrimidin-6-yl]benzonitrile], the 50% inhibitory concentration (IC50) in experiment [1] is less than 10000 nM; in experiment [2], 0.0001 to 1 µM.

Regarding `COc1cccc(-c2[nH]c(C3(C)CCN(c4ncnc5[nH]c(-c6cnn(C(F)F)c6)cc45)CC3)nc2C)c1` [P-3168, 6-[1-(difluoromethyl)pyrazol-4-yl]-4-[4-[5-(3-methoxyphenyl)-4-methyl-1H-imidazol-2-yl]-4-methyl-1-piperidyl]-7H-pyrrolo[2,3-d]pyrimidine], the IC50 in experiment [1] was less than 10000 nM; in experiment [2], 0.0001 to 1 µM.

`COc1cccc(-c2[nH]c(C3(C)CCN(c4ncnc5[nH]c(-c6ccc(OC)nc6)cc45)CC3)nc2C)c1` [P-3169, 4-[4-[5-(3-methoxyphenyl)-4-methyl-1H-imidazol-2-yl]-4-methyl-1-piperidyl]-6-(6-methoxy-3-pyridyl)-7H-pyrrolo[2,3-d]pyrimidine]: the IC50 in experiment [1] was less than 10000 nM; in experiment [2], 0.0001 to 1 µM.

Turning to `CCOc1ccc(-c2[nH]c(C3(C)CCN(c4ncnc5[nH]c(-c6cnn(C(F)F)c6)cc45)CC3)nc2C)cc1` [P-3170, 6-[1-(difluoromethyl)pyrazol-4-yl]-4-[4-[5-(4-ethoxyphenyl)-4-methyl-1H-imidazol-2-yl]-4-methyl-1-piperidyl]-7H-pyrrolo[2,3-d]pyrimidine], the IC50 in experiment [1] was less than 10000 nM; in experiment [2], 0.0001 to 1 µM.

For the compound `Fc1ccc(-c2cc3c(N4CCC(c5nnc(-c6cccc(OC(F)F)c6)[nH]5)CC4)ncnc3[nH]2)cc1` [P-3204, 4-[4-[5-[3-(difluoromethoxy)phenyl]-4H-1,2,4-triazol-3-yl]-1-piperidyl]-6-(4-fluorophenyl)-7H-pyrrolo[2,3-d]pyrimidine], the half-inhibitory concentration (IC50) in experiment [1] is less than 10000 nM; in experiment [2] it was 0.0001 to 1 µM.

Turning to `COc1cc(-c2cc3c(N4CCC(c5nnc(-c6ccc(F)cc6)[nH]5)CC4)ncnc3[nH]2)ccn1` [P-3205, 4-[4-[5-(4-fluorophenyl)-4H-1,2,4-triazol-3-yl]-1-piperidyl]-6-(2-methoxy-4-pyridyl)-7H-pyrrolo[2,3-d]pyrimidine], the half-inhibitory concentration (IC50) is less than 10000 nM in experiment [1] and 1 to 10 µM in experiment [2].
